Assay results as given in US20230095520A1, “PHARMACEUTICAL COMPOSITION FOR PREVENTING OR TREATING CANCER COMPRISING AZOLE DERIVATIVES OR PHARMACEUTICALLY ACCEPTABLE SALT THEREOF” (Yungjin Pharm. Co., Ltd., priority 2020, published 2023).

Columns and labels:
MV-4-11 cells = test: MV-4-11 cell proliferation inhibition (CCK-8); assay type: cell-based; conditions: 72 hours; for inhibition at 0.1 µM / IC50: Homo sapiens; for inhibition at 0.1 µM: MV4-11, MV-4-11, compound concentration 100 nM, read-out: Inhibition rate (%); for IC50: MV4-11, MV-4-11 proliferation; for Inhibition rate (%): MV-4-11, compound concentration 100 nM
Procedure: MV-4-11 cells are one of the acute myeloid leukemia cells with a Fms-like tyrosine kinase (FLT3) gene mutation, and these cells are used to test inhibition of proliferation and survival of leukemia cells.
MV-4-11 cells cultured in a 96-well cell culture plate were treated with the compound of the present invention and cultured for 72 hours. Thereafter, the antiproliferative effect of the compound was assayed by the CCK-8 method using a tetrazolium salt.

[1] = biological target: T1, Recombinant purified human CDK7 (Homo sapiens, UniProt P50613); test: CDK7 activity inhibition, ADP-Glo kinase assay; assay type: biochemical; conditions: ATP 90 μM, MBP substrate, 2 hours 30° C.
T1 construct: purchased ThermoFisher PV3868
T1 sequence (P50613 whole entry): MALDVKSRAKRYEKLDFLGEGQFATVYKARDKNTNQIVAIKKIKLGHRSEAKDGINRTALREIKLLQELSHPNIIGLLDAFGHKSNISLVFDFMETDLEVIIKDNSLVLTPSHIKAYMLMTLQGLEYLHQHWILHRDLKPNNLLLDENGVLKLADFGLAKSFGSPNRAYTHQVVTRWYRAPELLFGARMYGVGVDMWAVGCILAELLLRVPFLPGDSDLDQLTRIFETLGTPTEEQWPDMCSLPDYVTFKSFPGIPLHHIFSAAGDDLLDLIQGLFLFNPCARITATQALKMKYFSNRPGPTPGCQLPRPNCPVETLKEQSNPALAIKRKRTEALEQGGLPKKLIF
T1 sequence (P51946 whole entry partner): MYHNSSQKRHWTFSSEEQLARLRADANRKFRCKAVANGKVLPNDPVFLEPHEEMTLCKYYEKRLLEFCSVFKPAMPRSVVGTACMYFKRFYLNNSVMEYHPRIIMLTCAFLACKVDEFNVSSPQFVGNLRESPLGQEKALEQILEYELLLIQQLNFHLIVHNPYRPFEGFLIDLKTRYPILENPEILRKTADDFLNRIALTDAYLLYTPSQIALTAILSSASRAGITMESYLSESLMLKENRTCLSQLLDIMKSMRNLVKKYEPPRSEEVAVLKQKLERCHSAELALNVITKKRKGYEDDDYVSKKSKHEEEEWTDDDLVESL
T1 sequence (P51948 whole entry partner): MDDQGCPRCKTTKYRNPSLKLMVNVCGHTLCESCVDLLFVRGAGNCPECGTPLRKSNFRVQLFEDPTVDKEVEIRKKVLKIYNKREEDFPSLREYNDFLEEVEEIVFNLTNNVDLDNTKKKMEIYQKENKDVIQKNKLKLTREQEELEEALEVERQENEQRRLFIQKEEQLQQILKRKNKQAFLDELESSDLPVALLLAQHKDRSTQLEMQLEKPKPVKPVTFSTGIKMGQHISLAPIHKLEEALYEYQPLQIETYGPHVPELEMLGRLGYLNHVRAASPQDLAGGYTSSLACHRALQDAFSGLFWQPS
Procedure: Recombinant purified human CDK7 (ThermoFisher, PV3868) and ADP Glo Kinase Assay Kit (Promega, V9102) were used. CDK7 was diluted with 1× kinase reaction buffer (40 mM Tris-Cl, pH 7.5, 20 mM MgCl2, 0.1 mg/ml BSA and 50 μM DTT) and added to a 96 well plate (CDK7 final concentration per reaction: 50 ng). It was finally treated with the compound of the present invention to a 1% DMSO aqueous solution, and a substrate cocktail containing ATP (final concentration of 90 μM) and 0.2 μg/μl MBP (myelin basic protein) in a total of 25 μl reaction mass was added to a 96 well plate, thereby initiating the enzymatic reaction. After 2 hours of incubation (30° C.), an equal volume (25 μl per reaction) of ADP Glo was added and incubated at room temperature for 60 minutes (30° C.). Thereafter, kinase detection reagent (50 μl per reaction) was added and incubated at room temperature for 30 minutes (30° C.). The kinase activity was measured by the chemiluminescence method according to the ADP Glo Kinase Assay Kit instruction manual, and the CDK7 inhibitory activity of the compounds of the present invention was calculated.

MDA-MB-468 cells = test: MDA-MB-468 cell proliferation inhibition (MTT); assay type: cell-based; conditions: for Inhibition rate (%): MDA-MB-468, compound concentration 100 nM; for IC50: MDA-MB-468 proliferation
Procedure: MDA-MB-468 cells are one of the triple-negative breast cancer (TNBC: negative for the expression of estrogen receptor, progesterone receptor and HER2) cells known as a malignant tumor that is difficult to diagnose at an early stage and has a high metastatic capacity, and these cells are used to test inhibition of proliferation and survival of breast cancer cells.
MDA-MB-468 cells cultured in a 96-well cell culture plate were treated with the compound of the present invention and cultured for 72 hours. Thereafter, the antiproliferative effect of the compound was assayed by the MTT method using a tetrazolium salt.

HepG2 cells = test: HepG2 cell proliferation inhibition (CCK-8); assay type: cell-based; conditions: Homo sapiens, HepG2, 72 h
Procedure: HepG2 cells are human hepatocellular carcinoma cells. In order to evaluate the efficacy of inhibiting the proliferation in HepG2 cells, HepG2 cells were treated with the compounds of the present invention, and the proliferation level was measured as follows.
The cells were cultured with a culture medium of MEM (Welgene)+10% FBS (Gibco)+1% penicillin/streptomycin (Gibco) at 37° C. in a humidified condition in the presence of 5% CO2. HepG2 cells cultured in a 96-well cell culture plate were treated with the compound of the present invention and cultured for 72 hours.

IC50 (MV-4-11 cells) [nM]	IC50 [1] [nM]	SMILES	also measured
45.8	28	C=CC(=O)Nc1ccc(-c2cccc([C@H](C)C(=O)Nc3ncc(C4CC4)s3)c2)cn1 [Compound 14]	inhibition at 0.1 µM (MV-4-11 cells): 100%
	11	C[C@H](C(=O)Nc1ncc(C2CC2)s1)c1cccc(-c2ccc(NC(=O)/C=C/CN(C)C)nc2)c1 [Compound 15]	inhibition at 0.1 µM (MV-4-11 cells): 100%
		C=CC(=O)Nc1cncc(-c2cccc([C@H](C)C(=O)Nc3ncc(C4CC4)s3)c2)n1 [Compound 16]	Inhibition rate (%) (MV-4-11 cells): 90%; Inhibition rate (%) (MDA-MB-468 cells; 72 hours): 53%
		C=CC(=O)Nc1cnc(-c2cccc([C@H](C)C(=O)Nc3ncc(C4CC4)s3)c2)cn1 [Compound 22]	Inhibition rate (%) (MV-4-11 cells): 100%; Inhibition rate (%) (MDA-MB-468 cells; 72 hours): 72%
		C=CC(=O)Nc1ncc(-c2cccc([C@H](C)C(=O)Nc3ncc(C4CC4)s3)c2)cn1 [Compound 27]	Inhibition rate (%) (MV-4-11 cells): 100%; Inhibition rate (%) (MDA-MB-468 cells; 72 hours): 74%
		C=CC(=O)Nc1ccc(-c2cccc([C@H](C)C(=O)Nc3ncc(C4CC4)s3)c2)nn1 [Compound 28]	Inhibition rate (%) (MV-4-11 cells): 100%; Inhibition rate (%) (MDA-MB-468 cells; 72 hours): 74%
		C=CC(=O)Nc1ncc(-c2cccc([C@H](C)C(=O)Nc3ncc(C4CC4)s3)c2)cc1F [Compound 29]	Inhibition rate (%) (MV-4-11 cells): 100%; Inhibition rate (%) (MDA-MB-468 cells; 72 hours): 75%
	17.8	C=CC(=O)Nc1cnc(-c2cccc([C@H](C)C(=O)Nc3ncc(C(F)(F)F)s3)c2)cn1 [Compound 37, (S)-N-(5-(3-(1-oxo-1-((5-(trifluoromethyl)thiazol-2-yl)amino)propan-2-yl)phenyl)pyrazin-2-yl)acrylamide]	inhibition at 0.1 µM (MV-4-11 cells): 100%
4.5	19.2	C=CC(=O)Nc1cnc(-c2cncc([C@H](C)C(=O)Nc3ncc(C(F)(F)F)s3)c2)cn1 [Compound 52, (S)-N-(5-(5-(1-oxo-1-((5-(trifluoromethyl)thiazol-2-yl)amino)propan-2-yl)pyridin-3-yl)pyrazin-2-yl)acrylamide]	
5.2	17.8	CC(C(=O)Nc1ncc(C(F)(F)F)s1)c1cncc(-c2cnc(NC(=O)/C=C/CN(C)C)cn2)c1 (stereo not shown) [Compound 63, (E)-4-(dimethylamino)-N-(5-(5-(1-oxo-1-((5-(trifluoromethyl)thiazol-2-yl)amino)propan-2-yl)pyridin-3-yl)pyrazin-2-yl)but-2-enamide]	
11	43.4	CC(C(=O)Nc1ncc(Cl)s1)c1cncc(-c2cnc(NC(=O)/C=C/CN(C)C)cn2)c1 (stereo not shown) [Compound 73, (E)-N-(5-(5-(1-((5-chlorothiazol-2-yl)amino)-1-oxopropan-2-yl)pyridin-3-yl)pyrazin-2-yl)-4-(dimethylamino)but-2-enamide]	
30.3	77	CC(C(=O)Nc1ncc(C(F)(F)F)s1)c1cncc(-c2cnc(NC(=O)/C=C/CN3CCOCC3)cn2)c1 (stereo not shown) [Compound 74, (E)-4-morpholino-N-(5-(5-(1-oxo-1-((5-(trifluoromethyl)thiazol-2-yl)amino)propan-2-yl)pyridin-3-yl)pyrazin-2-yl)but-2-enamide]	
9.1	36	C=CC(=O)Nc1ccc(-c2cncc(C(C)C(=O)Nc3ncc(C(F)(F)F)s3)c2)cn1 (stereo not shown) [Compound 82, N-(5′-(1-oxo-1-((5-(trifluoromethyl)thiazol-2-yl)amino)propan-2-yl)-[3,3′-bipyridin]-6-yl)acrylamide]	
6.9	23	CC(C(=O)Nc1ncc(C(F)(F)F)s1)c1cncc(-c2cnc(NC(=O)/C=C/CN3CC4CC3CO4)cn2)c1 (stereo not shown) [Compound 83, (E)-4-(2-oxa-5-azabicyclo[2.2.1]heptan-5-yl)-N-(5-(5-(1-oxo-1-((5-(trifluoromethyl)thiazol-2-yl)amino)propan-2-yl)pyridin-3-yl)pyrazin-2-yl)but-2-enamide]	
43.9	7.6	C[C@H](C(=O)Nc1ncc(C(F)(F)F)s1)c1cccc(-c2cnc(NC(=O)/C=C/CN3CC4CC3CO4)cn2)c1 (stereo partly drawn) [Compound 96, (E)-4-(2-oxa-5-azabicyclo[2.2.1]heptan-5-yl)-N-(5-(3-((S)-1-oxo-1-((5-(trifluoromethyl)thiazol-2-yl)amino)propan-2-yl)phenyl)pyrazin-2-yl)but-2-enamide]	
12.7	7.6	C[C@H](C(=O)Nc1ncc(C(F)(F)F)s1)c1cccc(-c2cnc(NC(=O)/C=C/CN(C)C)c(F)c2)c1 [Compound 99, (S,E)-4-(dimethylamino)-N-(3-fluoro-5-(3-(1-oxo-1-((5-(trifluoromethyl)thiazol-2-yl)amino)propan-2-yl)phenyl)pyridin-2-yl)but-2-enamide]	
12.3	4.3	C[C@H](C(=O)Nc1ncc(C(F)(F)F)s1)c1cccc(-c2cnc(NC(=O)/C=C/CN(C)C)c(C#N)c2)c1 [Compound 101, (S,E)-N-(3-cyano-5-(3-(1-oxo-1-((5-(trifluoromethyl)thiazol-2-yl)amino)propan-2-yl)phenyl)pyridin-2-yl)-4-(dimethylamino)but-2-enamide]	
30.7	9	C[C@H](C(=O)Nc1ncc(C2CCC2)s1)c1cccc(-c2cnc(NC(=O)/C=C/CN(C)C)cn2)c1 [Compound 104, (S,E)-N-(5-(3-(1-((5-cyclobutylthiazol-2-yl)amino)-1-oxopropan-2-yl)phenyl)pyrazin-2-yl)-4-(dimethylamino)but-2-enamide]	
7.1	10.5	CC(C(=O)Nc1ncc(C(F)(F)F)s1)c1cncc(-c2cnc(NC(=O)/C=C/CN(C)C)c(C#N)c2)c1 (stereo not shown) [Compound 108, (E)-N-(5-cyano-5′-(1-oxo-1-((5-(trifluoromethyl)thiazol-2-yl)amino)propan-2-yl)-[3,3′-bipyridin]-6-yl)-4-(dimethylamino)but-2-enamide]	
	17	C[C@H](C(=O)Nc1ncc(C(F)(F)F)s1)c1cccc(-c2cnc(NC(=O)/C=C/CN3CC[C@@H](F)C3)cn2)c1 [Compound 115, (E)-4-((R)-3-fluoropyrrolidin-1-yl)-N-(5-(3-((S)-1-oxo-1-((5-(trifluoromethyl)thiazol-2-yl)amino)propan-2-yl)phenyl)pyrazin-2-yl)but-2-enamide]	IC50 (HepG2 cells): 12.6 nM
	9	C[C@H](C(=O)Nc1ncc(C(F)(F)F)s1)c1cccc(-c2cnc(NC(=O)/C=C/CN3CCC(O)C3)cn2)c1 (stereo partly drawn) [Compound 119, (E)-4-(3-hydroxypyrrolidin-1-yl)-N-(5-(3-((S)-1-oxo-1-((5-(trifluoromethyl)thiazolyl)amino)propan-2-yl)phenyl)pyrazin-2-yl)but-2-enamide]	IC50 (MDA-MB-468 cells; 72 hours): 44 nM
	4	CCc1cnc(NC(=O)[C@@H](C)c2cccc(-c3cnc(NC(=O)/C=C/CN(C)C)c(F)c3)c2)s1 [Compound 130, (S,E)-4-(dimethylamino)-N-(5-(3-(1-((5-ethylthiazol-2-yl)amino)-1-oxopropan-2-yl)phenyl)-3-fluoropyridin-2-yl)but-2-enamide]	IC50 (MDA-MB-468 cells; Homo sapiens, MDA-MB-468, 72 h): ≤ 14 nM; IC50 (MDA-MB-468 cells; 72 hours): 7 nM
	33	CCc1cnc(NC(=O)[C@@H](C)c2cccc(-c3cnc(NC(=O)/C=C/CN4CCN(C)CC4)c(C#N)c3)c2)s1 [Compound 136, (S,E)-N-(3-cyano-5-(3-(1-((5-ethylthiazol-2-yl)amino)-1-oxopropan-2-yl)phenyl)pyridin-2-yl)-4-(4-methylpiperazin-1-yl)but-2-enamide]	
	13	CCc1cnc(NC(=O)C(C)c2cncc(-c3cnc(NC(=O)/C=C/CN(C)C)c(C#N)c3)c2)s1 (stereo not shown) [Compound 137, (E)-N-(5-cyano-5′-(1-((5-ethylthiazol-2-yl)amino)-1-oxopropan-2-yl)-[3,3′-bipyridin]-6-yl)-4-(dimethylamino)but-2-enamide]	
	8	CCc1cnc(NC(=O)C(CC)c2cccc(-c3cnc(NC(=O)/C=C/CN(C)C)c(C#N)c3)c2)s1 (stereo not shown) [Compound 138, (E)-N-(3-cyano-5-(3-(1-((5-ethylthiazol-2-yl)amino)-1-oxobutan-2-yl)phenyl)pyridin-2-yl)-4-(dimethylamino)but-2-enamide]	
